ChEMBL document CHEMBL1135130, “Substituted tetrahydrofuroyl-1-phenylalanine derivatives as potent and specific VLA-4 antagonists” (Bioorg Med Chem Lett, 2002)

Columns and labels:
[1] = Selectivity for alpha4-beta7 over alpha4-beta1 integrins
[2] = target: T1, Integrin alpha-4/beta-1 (Homo sapiens, UniProt P05556+P13612); assay: Inhibition of alpha4-beta1 (very late) antigen binding with VCAM-1 immunoglobulin; assay type: protein-complex assay
[3] = target: T2, Integrin alpha-4/beta-7 (Homo sapiens, UniProt P13612+P26010); assay: Inhibition of alpha4-beta7 integrin binding to MAdCAM immunoglobulin; assay type: protein-complex assay
T2 sequence (P13612 whole entry): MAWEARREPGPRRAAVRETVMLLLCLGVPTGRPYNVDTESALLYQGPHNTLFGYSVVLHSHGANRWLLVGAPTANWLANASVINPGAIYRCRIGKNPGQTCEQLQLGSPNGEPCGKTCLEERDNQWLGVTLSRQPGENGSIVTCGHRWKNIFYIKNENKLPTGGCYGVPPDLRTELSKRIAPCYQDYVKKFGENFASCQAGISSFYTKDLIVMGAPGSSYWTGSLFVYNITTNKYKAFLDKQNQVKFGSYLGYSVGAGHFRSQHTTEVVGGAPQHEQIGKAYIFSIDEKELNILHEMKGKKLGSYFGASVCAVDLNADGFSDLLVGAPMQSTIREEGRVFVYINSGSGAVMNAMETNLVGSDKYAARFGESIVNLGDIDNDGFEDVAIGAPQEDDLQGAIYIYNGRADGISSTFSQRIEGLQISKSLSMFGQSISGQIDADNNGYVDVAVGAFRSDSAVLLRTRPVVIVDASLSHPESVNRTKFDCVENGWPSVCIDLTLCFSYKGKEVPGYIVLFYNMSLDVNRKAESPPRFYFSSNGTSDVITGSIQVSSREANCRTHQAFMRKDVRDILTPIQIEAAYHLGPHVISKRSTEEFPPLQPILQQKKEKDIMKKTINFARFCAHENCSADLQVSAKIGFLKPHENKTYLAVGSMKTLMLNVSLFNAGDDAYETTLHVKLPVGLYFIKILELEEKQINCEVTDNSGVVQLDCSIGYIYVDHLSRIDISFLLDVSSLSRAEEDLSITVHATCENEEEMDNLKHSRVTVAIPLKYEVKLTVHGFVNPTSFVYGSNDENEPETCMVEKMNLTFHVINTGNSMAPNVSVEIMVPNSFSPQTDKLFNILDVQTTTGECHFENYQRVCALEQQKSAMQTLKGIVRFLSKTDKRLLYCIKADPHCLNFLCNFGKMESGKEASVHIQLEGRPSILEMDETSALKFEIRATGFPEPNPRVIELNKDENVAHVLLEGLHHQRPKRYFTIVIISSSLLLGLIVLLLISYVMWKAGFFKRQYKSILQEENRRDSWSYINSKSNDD
T2 sequence (P26010 whole entry): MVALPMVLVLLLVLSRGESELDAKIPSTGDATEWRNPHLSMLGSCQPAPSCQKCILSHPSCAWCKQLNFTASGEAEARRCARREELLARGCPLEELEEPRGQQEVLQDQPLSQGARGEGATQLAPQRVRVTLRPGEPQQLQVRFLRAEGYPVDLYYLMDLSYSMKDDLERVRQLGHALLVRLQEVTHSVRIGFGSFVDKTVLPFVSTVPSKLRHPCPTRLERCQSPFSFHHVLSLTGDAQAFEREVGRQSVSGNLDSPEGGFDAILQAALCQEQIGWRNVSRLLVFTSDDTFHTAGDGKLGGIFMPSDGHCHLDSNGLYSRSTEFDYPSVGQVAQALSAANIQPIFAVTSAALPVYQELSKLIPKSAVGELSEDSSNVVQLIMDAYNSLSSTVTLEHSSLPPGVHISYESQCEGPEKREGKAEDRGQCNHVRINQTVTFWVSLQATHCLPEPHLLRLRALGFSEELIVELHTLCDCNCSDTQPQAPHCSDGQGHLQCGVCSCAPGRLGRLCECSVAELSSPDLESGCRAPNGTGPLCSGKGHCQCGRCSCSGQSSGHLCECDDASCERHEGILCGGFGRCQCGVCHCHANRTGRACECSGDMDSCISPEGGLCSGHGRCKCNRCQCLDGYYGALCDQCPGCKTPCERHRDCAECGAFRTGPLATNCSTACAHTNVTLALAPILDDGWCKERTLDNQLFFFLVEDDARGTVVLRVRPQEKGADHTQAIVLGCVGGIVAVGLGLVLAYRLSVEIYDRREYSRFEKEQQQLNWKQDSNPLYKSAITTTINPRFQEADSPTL

[4] = target: T2, Integrin alpha-4/beta-7; assay: Inhibition of alpha4-beta7 antigen with MAdCAM immunoglobulin; assay type: protein-complex assay
[5] = Plasma clearance determined; assay type: ADME, organism-based; details: read-out: Clp
[6] = Oral bioavailability; assay type: ADME, organism-based; details: eutheria, in vivo
[7] = target: T1, Integrin alpha-4/beta-1; assay: Inhibition of alpha4-beta1 (very late) antigen binding with VCAM-1 immunoglobulin plus 5% human plasma; assay type: cell-free
[8] = target: Integrin alpha-4/beta-7 (Homo sapiens) (UniProt P13612+P26010); assay: Selectivity for alpha4-beta7 to that of alpha4-beta1; assay type: protein-complex assay

T1 sequence (P05556 whole entry, one chain of several): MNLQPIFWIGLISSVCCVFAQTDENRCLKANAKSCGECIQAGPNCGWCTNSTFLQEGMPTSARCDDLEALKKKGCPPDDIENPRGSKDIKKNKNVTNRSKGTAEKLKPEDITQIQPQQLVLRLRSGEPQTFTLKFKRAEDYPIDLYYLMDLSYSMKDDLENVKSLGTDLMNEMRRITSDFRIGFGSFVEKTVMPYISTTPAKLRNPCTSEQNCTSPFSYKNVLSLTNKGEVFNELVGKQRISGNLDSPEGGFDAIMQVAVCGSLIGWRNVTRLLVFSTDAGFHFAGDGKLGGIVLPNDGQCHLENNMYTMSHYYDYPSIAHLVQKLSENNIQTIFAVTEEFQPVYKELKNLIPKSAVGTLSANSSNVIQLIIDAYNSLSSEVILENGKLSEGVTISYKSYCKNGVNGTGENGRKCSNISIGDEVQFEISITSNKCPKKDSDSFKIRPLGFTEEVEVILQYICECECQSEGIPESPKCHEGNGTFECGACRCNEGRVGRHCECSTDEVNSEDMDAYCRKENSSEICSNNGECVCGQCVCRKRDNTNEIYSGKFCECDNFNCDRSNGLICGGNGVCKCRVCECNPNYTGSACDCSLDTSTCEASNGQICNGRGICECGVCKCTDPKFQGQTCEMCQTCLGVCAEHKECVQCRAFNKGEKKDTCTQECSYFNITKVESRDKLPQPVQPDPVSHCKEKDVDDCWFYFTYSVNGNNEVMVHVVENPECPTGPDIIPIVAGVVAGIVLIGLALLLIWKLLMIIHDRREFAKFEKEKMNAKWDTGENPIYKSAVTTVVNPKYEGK

Row | Ratio [1] | IC50 [2] | IC50 [3] | IC50 [4] | clearance [5] | bioavailability [6] | IC50 [7] | Ratio [8] | SMILES
1 | 11 | 23.1 nM | 11 nM | – | – | – | – | – | COc1ccccc1-c1ccc(C[C@H](NC(=O)[C@@]2(CC(=O)N3CCOCC3)CCCO2)C(=O)O)cc1
2 | – | 0.35 nM | – | 7.8 nM | 81.8 mL/min/kg | 1.9% | 0.61 nM | 22 | COCCC[C@]1(C(=O)N[C@@H](Cc2ccc(-c3c(OC)cccc3OC)cc2)C(=O)O)CCCO1
3 | – | 0.34 nM | – | 7.09 nM | 2.9 mL/min/kg | 51% | 3.61 nM | 21 | COc1cccc(OC)c1-c1ccc(C[C@H](NC(=O)[C@@]2(C)CCCO2)C(=O)O)cc1
